# Measurements: ChEMBL document CHEMBL5518181, “Studies of antibacterial activity (in vitro and in vivo) and mode of action for des-acyl tridecaptins (DATs)” (Eur J Med Chem, 2024)
# pKd: −log10 of the molar value. Active and inactive are the calls of the source. No cut-off for these calls is given here.
# Assays:
# Staphylococcus aureus [1] = assay: Antibacterial activity against […] assessed as inhibition of bacterial growth incubated for 18 hrs; format: functional; conditions: ATCC 29213, read-out: MIC100
# Pseudomonas aeruginosa = assay: Antibacterial activity against wild-type Pseudomonas aeruginosa PAO1 assessed as inhibition of bacterial growth incubated for 24 hrs; format: functional; conditions: read-out: MIC100
# Escherichia coli [2] = assay: Antibacterial activity against Escherichia coli ATCC 25922 assessed as inhibition of bacterial growth incubated for 18 hrs in presence of 2 mM CaCl2; format: functional, organism-based
# Escherichia coli [3] = assay: Antibacterial activity against Escherichia coli Swiss 9 harboring mcr-1 gene assessed as inhibition of bacterial growth incubated for 18 hrs; format: functional; conditions: read-out: MIC100
# Klebsiella pneumoniae [4] = assay: Antibacterial activity against Klebsiella pneumoniae ATCC 13883 assessed as inhibition of bacterial growth incubated for 18 hrs in presence of 2 mM CaCl2; format: functional, organism-based
# Acinetobacter baumannii = assay: Antibacterial activity against wild-type Acinetobacter baumannii ATCC 19606 assessed as inhibition of bacterial growth incubated for 20 hrs; format: functional; conditions: read-out: MIC100
# Klebsiella pneumoniae [5] = assay: Antibacterial activity against Klebsiella pneumoniae ATCC BAA-2470 expressing NDM-1 assessed as inhibition of bacterial growth incubated for 18 hrs; format: functional; conditions: read-out: MIC100
# Klebsiella pneumoniae [6] = assay: Antibacterial activity against Klebsiella pneumoniae ATCC 13883 assessed as inhibition of bacterial growth incubated for 18 hrs in presence of 5 mM KCl; format: functional, organism-based
# Escherichia coli [7] = assay: Antibacterial activity against Escherichia coli ATCC 25922 harboring hldE knock-out assessed as inhibition of bacterial growth incubated for 18 hrs; format: functional; conditions: read-out: MIC100
# Cytochrome P450 2B6 = target: T1, Cytochrome P450 2B6 (Homo sapiens, UniProt P20813); assay: Inhibition of CYP2B6 (unknown origin); format: ADME
# T1 sequence (P20813 whole entry): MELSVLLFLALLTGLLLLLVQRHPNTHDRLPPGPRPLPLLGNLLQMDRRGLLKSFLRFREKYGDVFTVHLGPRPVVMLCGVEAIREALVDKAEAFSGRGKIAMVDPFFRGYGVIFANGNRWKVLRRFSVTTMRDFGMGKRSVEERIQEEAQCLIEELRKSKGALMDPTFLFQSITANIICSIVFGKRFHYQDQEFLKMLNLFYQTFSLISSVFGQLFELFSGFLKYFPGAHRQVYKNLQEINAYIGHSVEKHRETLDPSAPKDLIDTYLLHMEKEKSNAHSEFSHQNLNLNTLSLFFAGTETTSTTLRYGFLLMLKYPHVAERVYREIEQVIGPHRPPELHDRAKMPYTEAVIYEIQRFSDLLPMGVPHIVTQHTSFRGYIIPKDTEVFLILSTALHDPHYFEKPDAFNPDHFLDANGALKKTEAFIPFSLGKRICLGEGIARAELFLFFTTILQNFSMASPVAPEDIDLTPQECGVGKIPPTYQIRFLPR
# Escherichia coli [8] = assay: Antibacterial activity against wild-type Escherichia coli ATCC 25922 assessed as inhibition of bacterial growth by measuring fold increase in MIC incubated for 18 hrs in presence of 50% heat inactivated human serum relative to control; format: functional
# [9] = Cmax in Swiss mouse lung at 10 mg/kg, iv administered as single bolus dose and measured upto 24 hrs by LC-MS/MS analysis; format: ADME, organism-based
# Cytochrome P450 3A4 = Cytochrome P450 3A4 (Homo sapiens, UniProt P08684); assay: Induction of CYP3A4 (unknown origin); format: ADME
# Staphylococcus aureus [10] = assay: Antibacterial activity against wild type Staphylococcus aureus USA300 assessed as inhibition of bacterial growth incubated for 18 hrs; format: functional; conditions: read-out: MIC100
# [11] = AUClast in Swiss mouse kidney at 10 mg/kg, iv administered as single bolus dose and measured upto 24 hrs by LC-MS/MS analysis; format: ADME, organism-based
# [12] = Aqueous solubility of compound at pH 4.6; format: physicochemical
# Citrobacter freundii = assay: Antibacterial activity against Citrobacter freundii ATCC 8090 assessed as inhibition of bacterial growth incubated for 18 hrs; format: functional; conditions: read-out: MIC100
# [13] = Drug uptake in Escherichia coli ATCC 25922 at 10 uM incubated for 10 mins by LC-MS/MS analysis; format: ADME
# Escherichia coli [14] = assay: Antibacterial activity against Escherichia coli ATCC 35218 infected in Swiss albino mouse septicemia model assessed as log10 reduction in bacterial burden below stasis in blood at 20 mg/kg, iv administered twice every 2 hrs and measured after 5 hrs; format: functional
# Escherichia coli [15] = assay: Antibacterial activity against Escherichia coli ATCC 25922 assessed as inhibition of bacterial growth incubated for 18 hrs in presence of 2 mM MgCl2; format: functional, organism-based
# [16] = Clearance in rat microsomes; format: ADME, Microsome
# Klebsiella pneumoniae [17] = assay: Antibacterial activity against wild-type Klebsiella pneumoniae ATCC 13883 assessed as inhibition of bacterial growth incubated for 18 hrs; format: functional; conditions: read-out: MIC100
# [18] = Half life in Swiss mouse at 10 mg/kg, iv administered as single bolus dose and measured upto 24 hrs by LC-MS/MS analysis; format: ADME, organism-based; conditions: in vivo
# Escherichia coli [19] = assay: Antibacterial activity against Escherichia coli ATCC BAA-2469 expressing NDM-1 assessed as inhibition of bacterial growth incubated for 18 hrs; format: functional; conditions: read-out: MIC100
# [20] = Clearance in human microsomes; format: ADME, Microsome
# Escherichia coli [21] = assay: Antibacterial activity against Escherichia coli ATCC 35218 infected in Swiss albino mouse septicemia model assessed as log10 reduction in bacterial burden below stasis in kidney at 20 mg/kg, iv administered twice every 2 hrs and measured after 5 hrs; format: functional
# Escherichia coli [22] = assay: Antibacterial activity against Escherichia coli panel (100 strains) assessed as inhibition of bacterial growth; format: functional
# [23] = AUClast in Swiss mouse plasma at 10 mg/kg, iv administered as single bolus dose and measured upto 24 hrs by LC-MS/MS analysis; format: ADME, organism-based
# Escherichia coli [24] = assay: Antibacterial activity against Escherichia coli ATCC 35218 infected in Swiss albino mouse septicemia model at 10 to 30 mg/kg, iv administered twice every 2 hrs and measured after 5 hrs; format: functional, organism-based; conditions: dose 10-30 mg/kg
# Escherichia coli [25] = assay: Antibacterial activity against Escherichia coli ATCC 25922 infected in cyclophosphamide immunosuppressed mouse thigh infection model at 30 to 90 mg/kg, iv administered every 2 hrs starting from 1 hr post infection and measured 25 hrs post infection; format: functional, organism-based; conditions: dose 30-90 mg/kg, time 24.0 hrs
# Lipopolysaccharide (LPS) [26] = assay: Binding affinity to Escherichia coli O55:B5 LPS assessed as dissociation constant by ITC analysis; format: subcellular
# Escherichia coli [27] = assay: Antibacterial activity against Escherichia coli Swiss 7 harboring mcr-1 gene assessed as inhibition of bacterial growth incubated for 18 hrs; format: functional; conditions: read-out: MIC100
# Lipopolysaccharide (LPS) [28] = assay: Binding affinity to Pseudomonas aeruginosa LPS assessed as dissociation constant by ITC analysis; format: subcellular
# Klebsiella pneumoniae [29] = assay: Antibacterial activity against Klebsiella pneumoniae ATCC 43816 infected in mouse urinary tract infection model at <10 mg/kg, iv administered every 4 hrs and measured after 26 hrs; format: functional, organism-based
# [30] = Hemolytic activity in human red blood cells at 400 ug/ml incubated for 45 mins by spectrophotometric analysis relative to control; format: toxicity, cell-based, Erythrocyte; conditions: red blood cells (erythrocytes), at 400 µg/mL, read-out: Activity
# Klebsiella pneumoniae [31] = assay: Antibacterial activity against Klebsiella pneumoniae ATCC 13883 assessed as inhibition of bacterial growth incubated for 18 hrs in presence of 2 mM MgCl2; format: functional, organism-based
# [32] = AUClast in Swiss mouse liver at 10 mg/kg, iv administered as single bolus dose and measured upto 24 hrs by LC-MS/MS analysis; format: ADME, organism-based
# [33] = Chemical stability of compound in mercaptoethanol; format: physicochemical
# Sequence of Cytochrome P450 3A4 (P08684 whole entry): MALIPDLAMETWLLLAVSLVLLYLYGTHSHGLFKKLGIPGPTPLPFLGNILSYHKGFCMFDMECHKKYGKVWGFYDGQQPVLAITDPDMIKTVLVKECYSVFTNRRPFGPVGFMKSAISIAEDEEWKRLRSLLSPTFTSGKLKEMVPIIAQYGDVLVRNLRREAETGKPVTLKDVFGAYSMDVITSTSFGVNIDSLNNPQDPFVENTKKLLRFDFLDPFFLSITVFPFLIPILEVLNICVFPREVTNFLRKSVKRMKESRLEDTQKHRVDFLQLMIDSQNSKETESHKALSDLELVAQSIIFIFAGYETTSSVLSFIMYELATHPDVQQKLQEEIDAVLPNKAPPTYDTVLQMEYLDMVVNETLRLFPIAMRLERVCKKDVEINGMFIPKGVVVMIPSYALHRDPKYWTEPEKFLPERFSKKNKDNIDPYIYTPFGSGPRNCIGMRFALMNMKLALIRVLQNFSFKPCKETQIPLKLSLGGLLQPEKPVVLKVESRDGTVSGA
smiles,measurement,setting,value
CC[C@H](C)[C@@H](NC(=O)[C@@H](NC(=O)[C@H](CCC(=O)O)NC(=O)[C@H](Cc1ccccc1)NC(=O)[C@@H](CCN)NC(=O)[C@H](CCN)NC(=O)[C@H](CO)NC(=O)[C@@H](Cc1c[nH]c2ccccc12)NC(=O)[C@@H](CO)NC(=O)CNC(=O)[C@@H](CCN)NC(=O)[C@H](NC(=O)[C@H](C)N)C(C)C)C(C)C)C(=O)N[C@@H](C)C(=O)O,MIC,Staphylococcus aureus [1],> 64 µg/mL
same,MIC,Pseudomonas aeruginosa,64 µg/mL
same,Activity,Escherichia coli [2],Active
same,MIC,Escherichia coli [3],8 µg/mL
same,Activity,Klebsiella pneumoniae [4],Active
same,MIC,Acinetobacter baumannii,32 µg/mL
same,MIC,Klebsiella pneumoniae [5],8 µg/mL
same,Activity,Klebsiella pneumoniae [6],Active
same,MIC,Escherichia coli [7],4 µg/mL
same,inhibition (INH),Cytochrome P450 2B6,Not Active
same,fold change (FC),Escherichia coli [8],2
same,Cmax,[9],17000 ng/mL
same,Activity,Cytochrome P450 3A4,Not Active
same,MIC,Staphylococcus aureus [10],> 32 µg/mL
same,AUC(0-t) at 24 h,[11],659000 ng·h/mL
same,solubility,[12],> 1000 µg/mL
same,MIC,Citrobacter freundii,4 µg/mL
same,Drug uptake,[13],Active
same,log(activity),Escherichia coli [14],~2
same,Activity,Escherichia coli [15],Active
same,microsomal CLint,[16],19 µL/min/mg
same,MIC,Klebsiella pneumoniae [17],4 µg/mL
same,half-life,[18],22.8 min
same,MIC,Escherichia coli [19],8 µg/mL
same,microsomal CLint,[20],23 µL/min/mg
same,log(activity),Escherichia coli [21],~2
same,MIC50,Escherichia coli [22],4 µg/mL
same,MIC90,Escherichia coli [22],8 µg/mL
same,AUC(0-t) at 24 h,[23],82500 ng·h/mL
same,Activity,Escherichia coli [24],Active
same,Activity,Escherichia coli [25],Active
same,pKd,Lipopolysaccharide (LPS) [26],4.45
same,MIC,Escherichia coli [27],16 µg/mL
same,pKd,Lipopolysaccharide (LPS) [28],4.37
same,Activity,Klebsiella pneumoniae [29],Active
same,"hemolysis at 0.75 h, 400 ug/ml",[30],9.1%
same,Activity,Klebsiella pneumoniae [31],Active
same,AUC(0-t) at 24 h,[32],3020 ng·h/mL
same,Stability,[33],Stable
